The values below come from US20260248881A1, “PHARMACEUTICAL COMPOSITION COMPRISING FOXM1 INHIBITOR AND IMMUNE CHECKPOINT INHIBITOR FOR PREVENTING OR TREATING CANCER” (National Cancer Center, priority 2022, published 2026).

What all share (type): cell-based, human
The test system of experiment [1] is H1299 and PC9 cells. The experiment in a line: Cell cycle distribution analysis (PI staining, flow cytometry). The protocol: Both H1299 and PC9 cells were enzymatically dissociated using TrypLE (#12605-010; Thermo Fisher Scientific), collected by centrifugation at 2,000×g for 2 minutes, resuspended in PBS, fixed in 70% ethanol, and stored overnight at 4° C. Fixed cells were pelleted, washed twice with PBS, resuspended in FxCycle propidium iodide (PI)/RNase staining solution (#F10797; Thermo Fisher Scientific), and incubated in the dark at 37° C. for 30 minutes. Flow cytometry was performed using a FACS-LSR Fortessa flow cytometer (BD Biosciences, Santa Clara, CA, USA).
Background: A flow cytometer gives signals particle by particle.

A further experiment has as its system CD274 (PD-L1). The experiment in a line: Semi-quantitative PCR of PD-L1 (CD274) transcript in H1299 and PC9 cells. To be noted: TST in the presence of IFN-γ. The protocol:
H1299 and PC9 cells purchased from ATCC (Manassas, VA, USA) were cultured in RPMI-1640 medium (#10-040-CV; Corning, New York, NY, USA) supplemented with 10% […] (#35-010-CV; Corning) and penicillin-streptomycin antibiotic cocktail (#15240062; Thermo Fisher Scientific, Waltham, MA, USA) at 37° C. and 5% CO2.
H1299 and PC9 LUAD cells were transfected with 5 nM negative control (NC) or FOXM1 siRNA (siFOXM1) (QIAGEN, Hilden, Germany) using Lipofectamine RNAiMAX (#13778150; Thermo Fisher Scientific). Human FOXM1 isoform b (pFLAG-FOXM1)-expressing plasmid or empty vector (pFLAG-CMV; mock) was transfected into H1299 and PC9 cells using Lipofectamine 2000 reagent (#11668019; Thermo Fisher Scientific) according to the manufacturer's instructions.
Total RNA was extracted and purified using the RNeasy kit (#74004; QIAGEN) according to the manufacturer's protocol. Reverse transcription of mRNA was performed using a PrimeScript 1st Strand CDNA Synthesis Kit (#6110A; TaKaRa Bio, Otsu, Japan). Quantitative PCR was performed using primers specific for the CD274 and FOXM1 genes designed using Primer 3 software. A β-actin gene was used as an internal control group to normalize target gene expression.

The test system of experiment [2] is H1299 and PC9 cells. The experiment in a line: Cell proliferation assay (WST-1). The note with it: 5 μM TST or siRNA knockdown; 24, 48, and 72 hours; both cell lines. The method, then: H1299 and PC9 cells were grown in 96-well plates, treated with 5 µM TST, or transfected with siFOXM1 at a density of 3,000 cells/well […]. Cell proliferation was recorded at the specified times by adding 4-[3-(4-iodophenyl)-2-(4-nitro-phenyl)-2H-5-tetrazolio]-1,3-benzene sulfonate) (WST-1, #MK400, TaKaRa Bio) at 37° C. for 2 hours, and absorbance was measured at 450 nm. All experiments were performed in quadruplicate.

Where [3] appears, read: vs NC siRNA or DMSO-treated group, time-dependent.

Turning to thiostrepton [TST], the G2 population result with H1299 and PC9 cells [1] (both cell lines, vs DMSO-treated group) is listed as “an increase in the G2 population”. Further, in the experiment on H1299 and PC9 cells [1] (setting [3]), the S phase population result is “decreased a S phase population” and the sub-G0/G1 population result is “increased the sub-G0/G1 population”. Further, the “PD-L1 mRNA expression” value in the experiment on CD274 (PD-L1) is given as “concentration-dependent decrease”. For the same substance, in the experiment with H1299 and PC9 cells [2], the cell proliferation result was “decreased in a time-dependent manner”.
